Laboratory results published in the supplement of paper PMC4858399.
Counter-ions that a name gives are not always drawn.

Experiments:
Details in all cases: exposure time 48 h
[1] = test system: Caenorhabditis elegans N2; test: lowest effective concentration for larval growth inhibition (size below effect threshold); higher = less potent
Outline: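 In 96-well plates, 50 C. elegans N2 L1 larvae per well were cultured at 20°C for 48 h in K-medium with killed bacteria and 1% DMSO, plus the chemical at 0.5, 1, 5, 10, 50, 100 or 200 µM. Size was measured as per-worm extinction on a Biosort and log-transformed into well means. Taking the first dose where the plate-adjusted mean size sits under 5.665 and stays there at higher doses gives the lowest effective concentration.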

[2] = test system: Caenorhabditis elegans N2; test: AC50 for larval growth inhibition (Hill fit); higher = less potent
Outline: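 Synchronised C. elegans N2 L1 larvae, 50 per well in 96-well plates, were grown at 20°C for 48 h in K-medium with killed OP50, 1% DMSO and 0.5–200 µM chemical. Worm size was read on a COPAS Biosort as extinction, log-transformed and averaged per well, and only wells holding at least 10 worms were kept. AC50 was obtained by a constrained Hill fit using weighted genetic-algorithm regression, with out-of-range values censored.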

[3] = test system: Caenorhabditis elegans N2; test: mean nematode size ln(EXT) after 48 h, plate-adjusted (DMSO control set to 6) (ln(EXT), control-adjusted); higher = larger nematodes / less growth inhibition
Outline: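 A growth model removed debris from Biosort extinction readings taken on each worm. These worms were synchronised C. elegans N2 L1 larvae, 50 per well in 4–6 wells per treatment, grown for 48 h at 20°C in K-medium with killed OP50, 1% DMSO and 0.5–200 µM chemical. Readings were natural-logged and averaged by well to give mean size. On each plate, the vehicle control mean was subtracted and 6 was added.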

Compound	lowest effective concentration [1]	AC50 for larval growth inhibition [2]	mean nematode size ln(EXT) (ln) ([3]; 0.5 µM)	mean nematode size ln(EXT) (ln) ([3]; 1 µM)	mean nematode size ln(EXT) (ln) ([3]; 5 µM)	mean nematode size ln(EXT) (ln) ([3]; 10 µM)	mean nematode size ln(EXT) (ln) ([3]; 50 µM)	mean nematode size ln(EXT) (ln) ([3]; 100 µM)	mean nematode size ln(EXT) (ln) ([3]; 200 µM)
COP(=O)(OC)OC(Br)C(Cl)(Cl)Br (stereo not drawn) [Naled]	5 µM	95.8 µM	5.83	5.69	5.51	5.53	4.87	4.66	3.88
c1ccc2ccccc2c1 [Naphthalene]	200 µM	> 200 µM	5.99	5.93	5.96	5.78	5.87	5.92	4.83
CCN(CC)C(=O)C(C)Oc1cccc2ccccc12 (stereo not drawn) [Napropamide]	100 µM	97.3 µM	5.97	5.95	5.93	6	6.01	5.62	5.43
COc1ccc(S(=O)(=O)N2C(=O)[C@@](c3ccccc3OC)(N3C[C@H](O)C[C@H]3C(=O)N(C)C)c3cc(Cl)ccc32)c(OC)c1 [Nelivaptan]	100 µM	> 200 µM	5.95	5.76	5.72	5.83	5.7	5.48	5.44
O=C(Nc1ccc([N+](=O)[O-])cc1Cl)c1cc(Cl)ccc1O [Niclosamide]	200 µM	98.6 µM	5.85	5.9	5.86	6.1	6.02	5.74	5.59
CN1CCC[C@H]1c1cccnc1 [Nicotine]	100 µM	> 200 µM	5.88	5.83	5.83	5.87	5.87	5.38	5.56
Clc1cccc(C(Cl)(Cl)Cl)n1 [Nitrapyrin]	100 µM	108 µM	5.36	5.48	5.3	5.47	5.92	5.54	4.05
O=C(O)CN(CC(=O)O)CC(=O)O [Nitrilotriacetic acid]	200 µM	> 200 µM	5.78	5.83	5.87	5.88	5.91	5.88	5.21
O=[N+]([O-])c1ccccc1 [Nitrobenzene]	200 µM	193 µM	6.01	5.97	6.01	6.12	6.23	6.14	5.65
O=C1CN(/N=C/c2ccc([N+](=O)[O-])o2)C(=O)N1 [Nitrofurantoin]	200 µM	> 200 µM	5.9	5.88	5.88	5.88	5.81	5.84	5.46
CNc1cnn(-c2cccc(C(F)(F)F)c2)c(=O)c1Cl [Norflurazon]	200 µM	104 µM	5.99	5.96	6.11	6.19	6.05	5.79	5.15
O=C(NC(=O)c1c(F)cccc1F)Nc1ccc(OC(F)(F)C(F)OC(F)(F)F)c(Cl)c1 (stereo not drawn) [Novaluron]	50 µM	> 200 µM	5.83	5.74	5.85	5.88	5.61	5.12	4.56
CCOP(=S)(Oc1ccc([N+](=O)[O-])cc1)c1ccccc1 (stereo not drawn) [O-Ethyl O-(p-nitrophenyl) phenylphosphonothioate]	≤ 0.5 µM	6.09 µM	5.28	5.07	4.53	4.38	4.13	4.01	3.39
C[Si]1(C)O[Si](C)(C)O[Si](C)(C)O[Si](C)(C)O1 [Octamethylcyclotetrasiloxane]	200 µM	183 µM	5.99	5.98	5.96	5.97	5.98	6.05	4.48
CCCCCCCCn1sccc1=O [Octhilinone]	≤ 0.5 µM	34.9 µM	5.47	5.54	5.56	5.58	4.2	3.68	3.36
CC(C)(C)CC(C)(C)c1ccc(O)c(-n2nc3ccccc3n2)c1 [Octrizole]	≤ 0.5 µM	> 200 µM	5.46	5.58	5.57	5.58	5.58	5.55	5.44
CCCCCCCCOC(=O)c1cc(O)c(O)c(O)c1 [Octyl gallate]	50 µM	55.1 µM	5.79	5.87	5.84	5.88	4.63	4.47	3.77
CCCN(CCC)c1c([N+](=O)[O-])cc(S(N)(=O)=O)cc1[N+](=O)[O-] [Oryzalin]	50 µM	> 200 µM	5.9	5.91	5.84	5.72	5.27	4.95	4.56
CC(C)Oc1cc(-n2nc(C(C)(C)C)oc2=O)c(Cl)cc1Cl [Oxadiazon]	200 µM	120 µM	6.14	6.23	6.09	5.95	6.05	5.95	3.29
CCOc1cc(Oc2ccc(C(F)(F)F)cc2Cl)ccc1[N+](=O)[O-] [Oxyfluorfen]	≤ 0.5 µM	3.64 µM	5.57	5.42	4.64	3.99	3.63	3.63	3.46
CN(C)[C@@H]1C(=O)C(C(N)=O)=C(O)[C@@]2(O)C(=O)C3=C(O)c4c(O)cccc4[C@@](C)(O)[C@H]3[C@H](O)[C@@H]12 [Oxytetracycline dihydrate]	200 µM	> 200 µM	5.86	6.02	6.01	5.95	5.87	5.83	5.46

Compound	lowest effective concentration [1]	AC50 for larval growth inhibition [2]	mean nematode size ln(EXT) (ln) ([3]; 0.5 µM)	mean nematode size ln(EXT) (ln) ([3]; 1 µM)	mean nematode size ln(EXT) (ln) ([3]; 5 µM)	mean nematode size ln(EXT) (ln) ([3]; 10 µM)	mean nematode size ln(EXT) (ln) ([3]; 50 µM)	mean nematode size ln(EXT) (ln) ([3]; 100 µM)	mean nematode size ln(EXT) (ln) ([3]; 200 µM)
CN(C)[C@@H]1C(=O)C(C(N)=O)=C(O)[C@@]2(O)C(=O)C3=C(O)c4c(O)cccc4[C@@](C)(O)[C@H]3[C@H](O)[C@@H]12 [Oxytetracycline hydrochloride]	100 µM	81.4 µM	5.99	5.96	5.95	6.01	5.9	5.64	5.48
COP(=S)(OC)Oc1ccc([N+](=O)[O-])cc1 [Parathion-methyl]	5 µM	15.1 µM	5.71	5.8	5.52	5.25	3.72	3.66	3.7
CCOP(=S)(OCC)Oc1ccc([N+](=O)[O-])cc1 [Parathion]	≤ 0.5 µM	13.4 µM	5.59	5.66	5.54	5.03	3.46	3.63	3.36
CCC(CC)Nc1c([N+](=O)[O-])cc(C)c(C)c1[N+](=O)[O-] [Pendimethalin]	200 µM	> 200 µM	5.89	5.93	5.86	5.77	5.86	6.13	5.44
Oc1c(Cl)c(Cl)c(Cl)c(Cl)c1Cl [Pentachlorophenol]	50 µM	146 µM	5.82	5.94	5.92	5.89	5.6	5.01	4.2
Clc1nc(Cl)c(Cl)c(Cl)c1Cl [Pentachloropyridine]	50 µM	> 200 µM	5.87	5.81	5.83	5.82	5.6	5.48	5.59
O=C(O)C(F)(F)C(F)(F)C(F)(F)C(F)(F)C(F)(F)C(F)(F)C(F)(F)F [Pentadecafluorooctanoic acid ammonium salt]	200 µM	> 200 µM	5.88	5.86	5.85	5.84	5.83	5.68	5.43
N=C(N)c1ccc(OCCCCCOc2ccc(C(=N)N)cc2)cc1 [Pentamidine isethionate salt]	50 µM	149 µM	6.04	6.06	6	5.89	5.44	5.05	4.25
CCCCC=O [Pentanal]	200 µM	185 µM	5.98	5.93	5.9	6	6.05	6.02	5.56
O=C(O)C(F)(F)C(F)(F)C(F)(F)C(F)(F)C(F)(F)C(F)(F)C(F)(F)C(F)(F)C(F)(F)F [Perfluorodecanoic acid]	5 µM	14.6 µM	5.85	5.87	5.14	4.6	4.06	3.96	3.16
O=C(O)C(F)(F)C(F)(F)C(F)(F)C(F)(F)C(F)(F)C(F)(F)F [Perfluoroheptanoic acid]	100 µM	> 200 µM	5.87	5.85	5.88	5.83	5.74	5.42	5.57
O=C(O)C(F)(F)C(F)(F)C(F)(F)C(F)(F)C(F)(F)C(F)(F)C(F)(F)C(F)(F)F [Perfluorononanoic acid]	10 µM	39 µM	5.85	5.84	5.81	5.61	4.27	3.92	3.1
O=S(=O)(O)C(F)(F)C(F)(F)C(F)(F)C(F)(F)C(F)(F)C(F)(F)C(F)(F)C(F)(F)F [Perfluorooctane sulfonic acid]	5 µM	17.4 µM	5.78	5.91	5.28	5.06	4.32	4.28	3.33
NS(=O)(=O)C(F)(F)C(F)(F)C(F)(F)C(F)(F)C(F)(F)C(F)(F)C(F)(F)C(F)(F)F [Perfluorooctanesulfonamide]	5 µM	7.84 µM	5.89	5.86	5.26	4.64	3.6	3.86	3.65
O=C(O)C(F)(F)C(F)(F)C(F)(F)C(F)(F)C(F)(F)C(F)(F)C(F)(F)F [Perfluorooctanoic acid]	100 µM	60.2 µM	6	6	5.94	6.02	5.75	5.24	5.31
O=C(O)C(F)(F)C(F)(F)C(F)(F)C(F)(F)C(F)(F)C(F)(F)C(F)(F)C(F)(F)C(F)(F)C(F)(F)F [Perfluoroundecanoic acid]	5 µM	4.14 µM	5.8	5.77	4.55	3.95	3.63	3.64	3.2
CC1(C)C(C=C(Cl)Cl)C1C(=O)OCc1cccc(Oc2ccccc2)c1 (stereo not drawn) [Permethrin]	10 µM	11.2 µM	5.91	5.9	5.67	5.56	5.41	4.98	5.24
c1ccc2c(c1)ccc1ccccc12 [Phenanthrene]	10 µM	5.56 µM	5.95	5.89	5.84	3.51	3.73	4.1	3.29
CCC1(c2ccccc2)C(=O)NC(=O)NC1=O [Phenobarbital sodium salt]	200 µM	> 200 µM	5.87	5.82	5.88	5.86	5.87	5.91	5.65
CCC(C)(C)c1ccc(O)c(C(C)(C)CC)c1 [Phenol, 2,4-bis(1,1-dimethylpropyl)-]	10 µM	175 µM	5.8	5.87	5.76	5.65	5.4	4.93	4.37
O=C1OC(c2ccc(O)cc2)(c2ccc(O)cc2)c2ccccc21 [Phenolphthalein]	200 µM	> 200 µM	5.87	5.86	5.87	5.87	5.78	5.84	5.55
